Experimental data reported in US12448369B2 (Edgewise Therapeutics, Inc., priority 2023, dated 2025).

What was measured:
[1] = tested on: Rabbit Psoas myofibrils (skeletal myosin ATPase); test: Myofibril ATPase assay, rabbit psoas (skeletal) myofibrils; type: biochemical; settings: rabbit psoas myofibrils
In short: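 Readout: A340 decline from NADH oxidation, PK/LDH-coupled to ADP release; kinetic reads over 75 min. Buffer: pCa (PIPES, CaCl2, EGTA), pH 7.0. Linear-regression slopes vs vehicle, 4PL fit; reported as concentration giving 75% (Y75) or 125% (Y125) of vehicle activity.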

[2] = tested on: Porcine atria myofibrils (atrial myosin ATPase); test: Myofibril ATPase assay, porcine atria myofibrils; type: biochemical; settings: porcine atria myofibrils
In short: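 Coupled PK-LDH readout, NADH loss at 340 nm, kinetic 75 min. Porcine atria myofibrils, pCa buffer (PIPES/CaCl2/EGTA, pH 7.0). Slopes (mAU/min) normalized to vehicle = 100%, 4-parameter fit; Y75 or Y125 reported.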

[3] = target: T1, Porcine ventricle myofibrils (ventricular myosin ATPase) (Sus scrofa, UniProt P79293); test: Myofibril ATPase assay, porcine ventricle myofibrils; type: biochemical, porcine (Yucatan minipigs); settings: porcine ventricle myofibrils
T1 construct: Myofibrils from porcine cardiac muscle was isolated from the left ventricle of Yucatan minipigs; tissue Exemplar Genetics; host or cells: left ventricle of Yucatan minipigs, myofibrils prepared in house
T1 sequence (P79293 whole entry): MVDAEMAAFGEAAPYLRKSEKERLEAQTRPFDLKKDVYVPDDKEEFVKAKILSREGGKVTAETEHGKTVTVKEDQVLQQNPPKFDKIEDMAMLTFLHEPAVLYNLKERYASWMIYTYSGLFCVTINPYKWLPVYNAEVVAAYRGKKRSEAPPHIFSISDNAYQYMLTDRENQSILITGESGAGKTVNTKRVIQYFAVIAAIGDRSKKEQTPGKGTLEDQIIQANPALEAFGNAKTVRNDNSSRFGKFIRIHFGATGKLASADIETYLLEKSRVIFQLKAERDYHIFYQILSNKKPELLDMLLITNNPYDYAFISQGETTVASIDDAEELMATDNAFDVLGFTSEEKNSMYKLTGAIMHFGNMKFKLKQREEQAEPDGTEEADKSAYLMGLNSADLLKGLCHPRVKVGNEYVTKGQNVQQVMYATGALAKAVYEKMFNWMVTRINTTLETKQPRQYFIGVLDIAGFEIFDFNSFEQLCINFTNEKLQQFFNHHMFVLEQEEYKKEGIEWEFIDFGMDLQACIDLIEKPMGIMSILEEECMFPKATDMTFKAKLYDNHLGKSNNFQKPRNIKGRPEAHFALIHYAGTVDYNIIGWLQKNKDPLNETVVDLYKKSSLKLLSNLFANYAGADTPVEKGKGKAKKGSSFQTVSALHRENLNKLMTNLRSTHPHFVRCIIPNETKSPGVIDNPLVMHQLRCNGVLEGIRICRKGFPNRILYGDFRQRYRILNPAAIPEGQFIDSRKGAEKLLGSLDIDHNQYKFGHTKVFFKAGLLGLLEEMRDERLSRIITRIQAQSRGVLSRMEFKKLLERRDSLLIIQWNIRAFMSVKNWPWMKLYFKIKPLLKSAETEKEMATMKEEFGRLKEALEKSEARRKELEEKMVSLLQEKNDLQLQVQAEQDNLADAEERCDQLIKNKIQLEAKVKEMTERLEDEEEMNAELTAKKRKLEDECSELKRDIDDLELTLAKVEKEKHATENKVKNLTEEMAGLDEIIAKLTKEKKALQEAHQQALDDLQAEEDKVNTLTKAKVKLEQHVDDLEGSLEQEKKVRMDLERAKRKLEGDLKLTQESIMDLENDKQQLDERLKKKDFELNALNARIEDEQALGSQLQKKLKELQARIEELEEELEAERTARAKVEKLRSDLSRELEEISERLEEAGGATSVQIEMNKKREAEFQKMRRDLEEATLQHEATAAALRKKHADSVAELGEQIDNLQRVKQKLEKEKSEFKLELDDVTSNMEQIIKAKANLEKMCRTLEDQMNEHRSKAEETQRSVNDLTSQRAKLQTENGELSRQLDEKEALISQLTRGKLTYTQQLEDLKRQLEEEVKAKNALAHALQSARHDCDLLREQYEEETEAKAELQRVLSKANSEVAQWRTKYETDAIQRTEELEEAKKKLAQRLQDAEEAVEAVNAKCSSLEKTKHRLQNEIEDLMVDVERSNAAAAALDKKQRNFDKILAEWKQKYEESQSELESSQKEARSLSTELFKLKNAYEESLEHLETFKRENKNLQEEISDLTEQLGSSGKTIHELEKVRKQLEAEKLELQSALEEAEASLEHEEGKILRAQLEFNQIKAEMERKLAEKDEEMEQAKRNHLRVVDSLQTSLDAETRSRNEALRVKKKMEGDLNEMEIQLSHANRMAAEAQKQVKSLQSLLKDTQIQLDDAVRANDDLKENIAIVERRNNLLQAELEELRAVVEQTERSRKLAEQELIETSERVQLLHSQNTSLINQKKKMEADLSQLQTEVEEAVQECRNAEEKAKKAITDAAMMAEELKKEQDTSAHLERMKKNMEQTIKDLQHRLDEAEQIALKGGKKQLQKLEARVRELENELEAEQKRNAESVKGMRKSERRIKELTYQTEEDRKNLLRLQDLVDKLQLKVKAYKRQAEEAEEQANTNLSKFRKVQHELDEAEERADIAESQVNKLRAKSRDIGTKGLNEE
In short: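 Left-ventricle myofibrils from Yucatan minipigs were tested with a PK/LDH-coupled system, following NADH loss at 340 nm every 1.5-2 min for 75 min. Slopes were normalized to vehicle wells and fit to a 4-parameter logistic model; values are Y75 (25% ATPase reduction) or Y125 concentrations.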

[4] = Y75 value (75% activity relative to no compound)

Compound | Skeletal EC25 ([1]; Y75 value (no ‡ mark)) [µM] | Atrial EC25 ([2]; Y75 value (no ‡ mark)) [nM] | Ventricular EC25 ([3]; Y75 value (no ‡ mark)) [nM] | Skeletal EC25 ([1]; Y75 value) [µM] | Atrial EC25 [2, 4] [nM] | Ventricular EC25 ([3]; Y75 value) [nM] | Skeletal EC25 ([1]; ‡ Y125 value, not a Y75 value (125% activity relative to no compound))
Cc1c(CC(=O)N[C@@H](C)c2ccc(F)cn2)c(=O)[nH]c2cccc(F)c12 [compound 44] | 0.05 | 210 | 1970 |  |  |  | 
Cc1c(CC(=O)N[C@@H](C)c2ccc(F)cc2F)c(=O)[nH]c2ccc(F)c(C(F)(F)F)c12 [compound 96] | 0.01 | 70 | 130 |  |  |  | 
N#Cc1cnc2c(c1)CC[C@@H]2NC(=O)C1(c2cc3c(F)c(F)ccc3[nH]c2=O)CC1 (single isomer, unassigned) [compound 4824] | 8.80 | 100000 | 100000 |  |  |  | 
COc1nccc2[nH]c(=O)c(CC(=O)N[C@@H](C)c3ccc(F)cc3F)cc12 [compound 434] |  |  |  | 0.13 | 650 | 3840 | 
C[C@@H](NC(=O)Cc1c(Cl)c2cnccc2[nH]c1=O)c1ccc(C#N)cn1 [compound 453] |  |  |  | 9.12 | 8790 | 100000 | 
Cc1c([C@@H](C)C(=O)N[C@@H](C)c2ccc(F)cc2F)c(=O)[nH]c2ccc(F)c(F)c12 (single isomer, unassigned) [compound 108] | 0.05 | 40 | 280 |  |  |  | 
Cc1c(CC(=O)N[C@@H](C)c2ccc(C#N)cc2F)c(=O)[nH]c2ccc(F)c(C#N)c12 [compound 68] | 0.01 | 60 | 70 |  |  |  | 
C[C@H](NC(=O)C(F)(F)c1cc2c(F)c(F)ccc2[nH]c1=O)c1nccc(C#N)n1 (single isomer, unassigned) [compound 2562] | 0.28 | 150 | 750 |  |  |  | 
Cc1nccc2[nH]c(=O)c(CC(=O)N[C@H](C)c3ccc(O)nc3)c(C)c12 (single isomer, unassigned) [compound 295] |  |  |  | 100.00 | 100000 | 100000 | 
Cc1c([C@H](C)C(=O)N[C@@H](C)c2ccc(F)cc2F)c(=O)[nH]c2ccc(F)c(F)c12 (single isomer, unassigned) [compound 112] | 0.03 | 60 | 310 |  |  |  | 
Cc1c(C2(C(=O)N[C@H](C)c3cc(C#N)ccn3)CC2)c(=O)[nH]c2ccc(F)c(F)c12 (single isomer, unassigned) [compound 2539] | 100.00 | 2760 | 100000 |  |  |  | 
Cc1c(CC(=O)N[C@H](C)c2ncc(F)cc2F)c(=O)[nH]c2ccc(O)nc12 (single isomer, unassigned) [compound 222] |  |  |  | 100.00 | 100000 | 100000 | 
Cc1c(C2(C(=O)N[C@@H](C)c3ncc(C#N)cn3)CC2)c(=O)[nH]c2cccc(C#N)c12 (single isomer, unassigned) [compound 2544] | 2.27 | 4480 | 18260 |  |  |  | 
Cc1nccc2[nH]c(=O)c(CC(=O)N[C@@H](CO)c3ccc(C#N)cc3F)c(C)c12 (single isomer, unassigned) [compound 243] |  |  |  | 0.17 | 560 | 2200 | 
CC(=O)N1C[C@H](NC(=O)Cc2c(C)c3c(C)nccc3[nH]c2=O)c2c(F)cc(F)cc21 [compound 206] |  |  |  | 0.40 | 100000 | 100000 | 
Cc1cc(C#N)cnc1[C@H](C)NC(=O)Cc1c(O)c2c(C)c(F)ccc2[nH]c1=O [compound 1121] | 100.00 | 100000 | 100000 |  |  |  | 
Cc1nccc2[nH]c(=O)c(CC(=O)N[C@@H](CO)c3ncc(F)cc3F)c(C)c12 (single isomer, unassigned) [compound 308] |  |  |  | 1.82 | 1070 | 12240 | 
Cc1c(CC(=O)N[C@@H](C)c2ncc(C#N)cc2F)c(=O)[nH]c2ccc(O)nc12 [compound 166] |  |  |  | 3.22 | 1910 | 100000 | 
Cc1nccc2[nH]c(=O)c(CC(=O)N[C@H](C)c3ncccc3F)c(C)c12 (single isomer, unassigned) [compound 267] |  |  |  | 100.00 | 100000 | 100000 | 

Compound | Skeletal EC25 ([1]; Y75 value (no ‡ mark)) [µM] | Atrial EC25 ([2]; Y75 value (no ‡ mark)) [nM] | Ventricular EC25 ([3]; Y75 value (no ‡ mark)) [nM] | Skeletal EC25 ([1]; Y75 value) [µM] | Atrial EC25 [2, 4] [nM] | Ventricular EC25 ([3]; Y75 value) [nM] | Skeletal EC25 ([1]; ‡ Y125 value, not a Y75 value (125% activity relative to no compound))
Cc1nccc2[nH]c(=O)c(CC(=O)N[C@H](C)c3ncc(F)cc3F)c(C)c12 (single isomer, unassigned) [compound 378] |  |  |  | 3.18 | 100000 | 100000 | 
Cc1c(F)ccc2[nH]c(=O)c(C(F)(F)C(=O)N[C@H](C)c3ncc(C#N)cn3)c(C)c12 (single isomer, unassigned) [compound 4831] | 0.06 | 120 | 390 |  |  |  | 
Cc1c(CC(=O)N[C@H](C)c2ncc(C#N)cc2F)c(=O)[nH]c2cc(F)c(F)cc12 [compound 1104] | 0.03 | 140 | 210 |  |  |  | 
Cc1c(CC(=O)N[C@@H](C)c2cnc(C#N)nc2)c(=O)[nH]c2ccc(C(F)(F)F)nc12 [compound 458] |  |  |  | 10.51 | 790 | 100000 | 
Cc1c(CC(=O)N[C@H](C)c2ncc(C#N)cc2F)c(=O)[nH]c2ccnc(C(F)(F)F)c12 (single isomer, unassigned) [compound 226] |  |  |  | 0.27 | 7580 | 100000 | 
Cc1nccc2[nH]c(=O)c(CC(=O)N[C@@H](CO)c3ccncc3)c(C)c12 [compound 293] |  |  |  | 73.40 | 100000 | 100000 | 
Cc1c([C@@H](C)C(=O)N[C@@H](C)c2ccc(C#N)cc2F)c(=O)[nH]c2ccnc(C#N)c12 (single isomer, unassigned) [compound 173] |  |  |  | 0.02 | 220 | 300 | 
Cc1c(CC(=O)N[C@@H](C)c2ccc(C#N)cn2)c(=O)[nH]c2ccc(F)c(C3CC3)c12 [compound 24] | 0.04 | 50 | 210 |  |  |  | 
C[C@H](NC(=O)Cc1c(C(F)F)c2cc(F)ccc2[nH]c1=O)c1ccc(F)cc1F [compound 106] | 0.04 | 50 | 200 |  |  |  | 
Cc1nccc2[nH]c(=O)c(CC(=O)N[C@@H](C)c3ccccc3O)c(C)c12 (single isomer, unassigned) [compound 321] |  |  |  | 100.00 | 100000 | 100000 | 
Cc1c(CC(=O)N[C@@H](C)c2ccc(C#N)nn2)c(=O)[nH]c2ccc(F)c(C3CC3)c12 (single isomer, unassigned) [compound 2058] | 3.15 | 100000 | 68080 |  |  |  | 
C[C@@H](NC(=O)Cc1cc2c(C#N)cccc2[nH]c1=O)c1ncc(C#N)cn1 (single isomer, unassigned) [compound 2037] | 0.79 | 2880 | 5310 |  |  |  | 
Cc1c(C2(C(=O)N[C@H](C)c3ncc(C#N)cc3F)CC2)c(=O)[nH]c2ccc(F)c(C#N)c12 (single isomer, unassigned) [compound 2523] |  | 190 | 740 |  |  |  | 100.00‡ μM
N#Cc1ccc([C@H](CO)NC(=O)Cc2c(C3CC3)c3cc(F)ccc3[nH]c2=O)c(F)c1 [compound 76] | 100.00 | 100000 | 100000 |  |  |  | 
Cc1nccc2[nH]c(=O)c(CC(=O)N[C@@H](C)c3ccc(C#N)cc3F)c(C#N)c12 [compound 154] |  |  |  | 0.04 | 180 | 540 | 
C[C@H](NC(=O)Cc1cc2cc(F)c(F)cc2[nH]c1=O)c1ccc(C#N)cn1 [compound 1115] | 11.40 | 27670 | 69620 |  |  |  | 
C[C@H](NC(=O)Cc1cc2c(C#N)nccc2[nH]c1=O)c1ccc(C#N)cn1 [compound 473] |  |  |  | 0.30 | 1440 | 6630 | 
Cc1nc(C#N)cnc1[C@@H](C)NC(=O)C(F)(F)c1c(C)c2cc(F)ccc2[nH]c1=O (single isomer, unassigned) [compound 2567] | 0.33 | 340 | 1070 |  |  |  | 
